These results are taken from PMC6010117, “Isatin: a privileged scaffold for the design of carbonic anhydrase inhibitors” (Journal of Enzyme Inhibition and Medicinal Chemistry, 2016).

Usually Ki stands for the dissociation constant of the complex between target and ligand, obtained from inhibition or displacement. Read a low Ki as higher affinity.

SMILES strings stand for the structures.

T4 sequence (P00915 2-261): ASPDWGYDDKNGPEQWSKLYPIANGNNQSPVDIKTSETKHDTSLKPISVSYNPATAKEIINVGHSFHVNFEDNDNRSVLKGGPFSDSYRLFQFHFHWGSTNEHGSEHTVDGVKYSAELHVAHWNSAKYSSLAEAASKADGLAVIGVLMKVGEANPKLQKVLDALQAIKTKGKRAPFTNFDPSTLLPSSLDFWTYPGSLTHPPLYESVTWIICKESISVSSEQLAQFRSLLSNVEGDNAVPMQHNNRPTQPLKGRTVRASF

In one assay the target is T1, hCA XII (Homo sapiens, UniProt O43570).
T1 construct: gene CA12; not described
T1 sequence (O43570 25-354): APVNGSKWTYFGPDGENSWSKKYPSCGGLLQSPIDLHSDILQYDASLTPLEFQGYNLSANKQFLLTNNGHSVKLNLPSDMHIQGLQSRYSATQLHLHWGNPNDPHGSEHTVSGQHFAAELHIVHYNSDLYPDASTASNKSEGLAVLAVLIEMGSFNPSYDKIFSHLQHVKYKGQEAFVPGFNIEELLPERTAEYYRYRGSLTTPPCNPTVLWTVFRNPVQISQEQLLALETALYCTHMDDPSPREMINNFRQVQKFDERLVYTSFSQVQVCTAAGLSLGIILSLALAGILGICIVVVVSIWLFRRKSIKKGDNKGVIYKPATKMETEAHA
The assay can be described thus: CA inhibition assay, Verpoorte method at […] nm, Lineweaver-Burk. Type of assay: biochemical.
In the case of `CN1C(=O)C(=C2C(=O)Nc3ccc(C(F)(F)F)cc32)SC1=Nc1ccc(S(N)(=O)=O)cc1` [n, EMAC 10020 n], the affinity, expressed as Ki, was 873 nM.

For `Cc1ccc2c(c1)C(=C1SC(=Nc3ccc(S(N)(=O)=O)cc3)N(C)C1=O)C(=O)N2` [l, EMAC 10020 l], affinity was put at a Ki of 440 nM.

Take `CN1C(=O)C(=C2C(=O)Nc3ccc(Cl)cc32)SC1=Nc1ccc(S(N)(=O)=O)cc1` [c, EMAC 10020 c]: the inhibitory constant (Ki) was 865 nM.

In turn, `CN1C(=O)C(=C2C(=O)Nc3ccc(F)cc32)SC1=Nc1ccc(S(N)(=O)=O)cc1` [d, EMAC 10020 d] registered a Ki of 85 nM.

The molecule `CN1C(=O)C(=C2C(=O)Nc3c(F)cccc32)SC1=Nc1ccc(S(N)(=O)=O)cc1` [m, EMAC 10020 m] gave an inhibition constant Ki of 90.7 nM.

`CN1C(=O)C(=C2C(=O)Nc3c(Br)cccc32)SC1=Nc1ccc(S(N)(=O)=O)cc1` [o, EMAC 10020 o] displayed an inhibition constant Ki of 824 nM.

The target in a further assay is T2, hCA IX (Homo sapiens, UniProt Q16790).
T2 construct: gene CA9; not described
Described as above. Type of assay: biochemical.
For the molecule `CN1C(=O)C(=C2C(=O)Nc3ccc(C(F)(F)F)cc32)SC1=Nc1ccc(S(N)(=O)=O)cc1` [n, EMAC 10020 n], the affinity corresponds to a Ki of 2660 nM.

Take `Cc1ccc2c(c1)C(=C1SC(=Nc3ccc(S(N)(=O)=O)cc3)N(C)C1=O)C(=O)N2` [l, EMAC 10020 l]: the inhibition constant (Ki) was determined as 3 nM.

`CN1C(=O)C(=C2C(=O)Nc3ccc(Cl)cc32)SC1=Nc1ccc(S(N)(=O)=O)cc1` [c, EMAC 10020 c] gave a Ki of 55.7 nM.

As to `CN1C(=O)C(=C2C(=O)Nc3ccc(F)cc32)SC1=Nc1ccc(S(N)(=O)=O)cc1` [d, EMAC 10020 d], affinity was put at a Ki of 50.7 nM.

With `CN1C(=O)C(=C2C(=O)Nc3c(F)cccc32)SC1=Nc1ccc(S(N)(=O)=O)cc1` [m, EMAC 10020 m], the affinity, expressed as Ki, was 4.1 nM.

As to `CN1C(=O)C(=C2C(=O)Nc3c(Br)cccc32)SC1=Nc1ccc(S(N)(=O)=O)cc1` [o, EMAC 10020 o], the inhibition constant (Ki) was 126 nM.

Another assay has as its target T3, hCA II (Homo sapiens, UniProt P00918).
T3 construct: gene CA2
Described as above. In kind it is biochemical.
For the molecule `CN1C(=O)C(=C2C(=O)Nc3ccc(C(F)(F)F)cc32)SC1=Nc1ccc(S(N)(=O)=O)cc1` [n, EMAC 10020 n], the affinity corresponds to a Ki of 5720 nM. In other words, the single-digit micromolar range.

Molecule `Cc1ccc2c(c1)C(=C1SC(=Nc3ccc(S(N)(=O)=O)cc3)N(C)C1=O)C(=O)N2` [l, EMAC 10020 l] registered a Ki of 79.1 nM.

The molecule `CN1C(=O)C(=C2C(=O)Nc3ccc(Cl)cc32)SC1=Nc1ccc(S(N)(=O)=O)cc1` [c, EMAC 10020 c] showed a Ki of 8300 nM.

With `CN1C(=O)C(=C2C(=O)Nc3ccc(F)cc32)SC1=Nc1ccc(S(N)(=O)=O)cc1` [d, EMAC 10020 d], the affinity, expressed as Ki, was 274 nM.

`CN1C(=O)C(=C2C(=O)Nc3c(F)cccc32)SC1=Nc1ccc(S(N)(=O)=O)cc1` [m, EMAC 10020 m] gave a Ki of 139 nM. This Ki lies about 2-fold lower than the previous one.

For the molecule `CN1C(=O)C(=C2C(=O)Nc3c(Br)cccc32)SC1=Nc1ccc(S(N)(=O)=O)cc1` [o, EMAC 10020 o], affinity was put at a Ki of 8780 nM. Against the preceding molecule, the Ki is about 63-fold higher.

A further assay has as its target T4, hCA I (Homo sapiens, UniProt P00915).
T4 construct: gene CA1
The description is as above. In kind it is biochemical.
Molecule `CN1C(=O)C(=C2C(=O)Nc3ccc(C(F)(F)F)cc32)SC1=Nc1ccc(S(N)(=O)=O)cc1` [n, EMAC 10020 n] gave a Ki of 945 nM.

With `Cc1ccc2c(c1)C(=C1SC(=Nc3ccc(S(N)(=O)=O)cc3)N(C)C1=O)C(=O)N2` [l, EMAC 10020 l], the affinity, expressed as Ki, was 87.6 nM. Against the preceding molecule, the Ki is about 11-fold lower.

For the molecule `CN1C(=O)C(=C2C(=O)Nc3ccc(Cl)cc32)SC1=Nc1ccc(S(N)(=O)=O)cc1` [c, EMAC 10020 c], the inhibitory constant (Ki) is 958 nM.

In turn, `CN1C(=O)C(=C2C(=O)Nc3ccc(F)cc32)SC1=Nc1ccc(S(N)(=O)=O)cc1` [d, EMAC 10020 d] registered an inhibitory constant (Ki) of 50.3 nM.

The molecule `CN1C(=O)C(=C2C(=O)Nc3c(F)cccc32)SC1=Nc1ccc(S(N)(=O)=O)cc1` [m, EMAC 10020 m] came in with an inhibitory constant (Ki) of 44.3 nM.

`CN1C(=O)C(=C2C(=O)Nc3c(Br)cccc32)SC1=Nc1ccc(S(N)(=O)=O)cc1` [o, EMAC 10020 o]: the Ki was found to be 877 nM.
